Data taken from paper PMC7031696 (Cell chemical biology, 2019).
Like-named read-outs stand apart in the source and are kept apart here.

How the values were obtained:
[1] = system: 3D7-MR4 trophozoite parasite-infected RBCs; test: Metabolomic profiling (hydrophilic metabolite changes, UHPLC-MS); format: cell-based, Plasmodium falciparum
[2] = system: asynchronous 3D7-A10 parasite cultures; test: Standard 72-h exposure asexual blood stage susceptibility assay (IC50^72h); format: cell-based, Plasmodium falciparum; conditions: Plasmodium falciparum, 3D7, 72 h, read-out: Overall (72hr assay) Mean IC50 (IC50^72h)
[3] = system: Plasmodium falciparum 3D7-A10 parasites; test: Stage specificity assay (8-h exposure of synchronized stages, IC50^8h); format: cell-based; conditions: for IC50: Plasmodium falciparum

FC(F)(F)c1cccc(Nc2nc3ccccc3nc2Nc2cccc(C(F)(F)F)c2)c1 [MMV665794]
Log2(fold changes) 3-phosphoglycerate ([1]; metabolite 3-phosphoglycerate, log2 fold change): 0.1475 | Log2(fold changes) 4-Pyridoxic acid ([1]; metabolite 4-Pyridoxic acid, log2 fold change): 0.1397 | Log2(fold changes) 4-aminobutyrate ([1]; metabolite 4-aminobutyrate, log2 fold change): -0.1443 | Log2(fold changes) 4-phosphopantetheine ([1]; metabolite 4-phosphopantetheine, log2 fold change): 0.0000 | Log2(fold changes) 4-phosphopantothenate ([1]; metabolite 4-phosphopantothenate, log2 fold change): 0.0000 | Log2(fold changes) 5-aminopentanoic acid ([1]; metabolite 5-aminopentanoic acid, log2 fold change): 0.0000 | Log2(fold changes) 5-methyl-THF ([1]; metabolite 5-methyl-THF, log2 fold change): 0.0000 | Log2(fold changes) 5-phosphoribosyl-1-pyrophosphate ([1]; metabolite 5-phosphoribosyl-1-pyrophosphate, log2 fold change): 0.0000 | Log2(fold changes) 6-phospho-D-gluconate ([1]; metabolite 6-phospho-D-gluconate, log2 fold change): 0.0648 | Log2(fold change) HVDD ([1]; metabolite HVDD): 0.0000 | Log2(fold change) Hydroxyisocaproic acid ([1]; metabolite Hydroxyisocaproic acid): 0.0000 | Log2(fold change) IDP ([1]; metabolite IDP): 0.0000 | Log2(fold change) IMP ([1]; metabolite IMP): -0.1724 | Log2(fold change) Inositol ([1]; metabolite Inositol): 0.4519 | Log2(fold change) Isopentyl-PP ([1]; metabolite Isopentyl-PP): 0.0000 | Log2(fold change) L-arginino-succinate ([1]; metabolite L-arginino-succinate): 0.0000 | Log2(fold change) LD ([1]; metabolite LD): 0.2876 | Log2(fold change) Myristoyl/tetradecanoyl-CoA ([1]; metabolite Myristoyl/tetradecanoyl-CoA): 0.0000 | Log2(fold change) N-Acetyl-L-alanine ([1]; metabolite N-Acetyl-L-alanine): -0.5892 | Log2(fold change) N-acetyl-L-ornithine ([1]; metabolite N-acetyl-L-ornithine): -0.6613 | Log2(fold change) N-acetyl-glucosamine-1/6-phosphate ([1]; metabolite N-acetyl-glucosamine-1/6-phosphate): 0.0457 | Log2(fold change) N-acetyl-glutamate ([1]; metabolite N-acetyl-glutamate): 0.0432 | Log2(fold change) N-acetyl-glutamine ([1]; metabolite N-acetyl-glutamine): -0.6444 | Log2(fold change) N-carbamoyl-L-aspartate ([1]; metabolite N-carbamoyl-L-aspartate): 0.7842 | Log2(fold change) NAD+ ([1]; metabolite NAD+): -0.0023 | Log2(fold change) NADH ([1]; metabolite NADH): 0.0000 | Log2(fold change) NADP+ ([1]; metabolite NADP+): 0.2420 | Log2(fold change) NADPH ([1]; metabolite NADPH): 0.2872 | Log2(fold change) O-acetyl-L-serine ([1]; metabolite O-acetyl-L-serine): 0.0000 | Log2(fold change) Octoluse 8/1P ([1]; metabolite Octoluse 8/1P): -0.0525 | Log2(fold change) Octoluse Bisphosphate ([1]; metabolite Octoluse Bisphosphate): -0.0227 | Log2(fold change) PD ([1]; metabolite PD): -1.6060 | Log2(fold change) PE ([1]; metabolite PE): -1.2530 | Log2(fold change) PEE ([1]; metabolite PEE): -0.7348 | Log2(fold change) PEEK ([1]; metabolite PEEK): -2.1636 | Log2(fold change) PVNF ([1]; metabolite PVNF): -0.9738 | Log2(fold change) Pyroglutamic acid ([1]; metabolite Pyroglutamic acid): -0.1549 | Log2(fold change) Pyrophosphate ([1]; metabolite Pyrophosphate): 0.0000 | Log2(fold change) Ribose-5-phosphate ([1]; metabolite Ribose-5-phosphate): 0.0000 | Log2(fold change) S-adenosyl-L-homocysteine ([1]; metabolite S-adenosyl-L-homocysteine): -0.1116 | Log2(fold change) S-adenosyl-L-methioninamine ([1]; metabolite S-adenosyl-L-methioninamine): 0.0000 | Log2(fold change) S-adenosyl-L-methionine ([1]; metabolite S-adenosyl-L-methionine): 0.0000 | Log2(fold change) S-methyl-5'-thioadenosine ([1]; metabolite S-methyl-5'-thioadenosine): -0.0770 | Log2(fold change) SD ([1]; metabolite SD): -0.6103 | Log2(fold change) SDL ([1]; metabolite SDL): 0.0000 | Log2(fold change) SID ([1]; metabolite SID): 0.0000 | Log2(fold change) Sedoheptulose bisphosphate ([1]; metabolite Sedoheptulose bisphosphate): 0.0000 | Log2(fold change) Thiamine pyrophosphate ([1]; metabolite Thiamine pyrophosphate): 0.0000 | Log2(fold changes) UDP-D-glucose ([1]; metabolite UDP-D-glucose, log2 fold change): 0.0057 | Log2(fold changes) UDP-D-glucuronate ([1]; metabolite UDP-D-glucuronate, log2 fold change): 0.0333 | Log2(fold changes) UDP-N-acetyl-glucosamine ([1]; metabolite UDP-N-acetyl-glucosamine, log2 fold change): -0.0841 | Log2(fold changes) UDP ([1]; metabolite UDP, log2 fold change): -0.2966 | Log2(fold changes) UMP ([1]; metabolite UMP, log2 fold change): -0.1315 | Log2(fold changes) UTP ([1]; metabolite UTP, log2 fold change): -0.1979 | Log2(fold change) hydroxyphenylpyruvate ([1]; metabolite hydroxyphenylpyruvate): 0.0000 | Log2(fold change) hydroxyproline/Aminolevulinate ([1]; metabolite hydroxyproline/Aminolevulinate): 0.0000 | Log2(fold change) hypoxanthine ([1]; metabolite hypoxanthine): 0.0564 | Log2(fold change) indole ([1]; metabolite indole): 0.0000 | Log2(fold change) inosine ([1]; metabolite inosine): -0.1857 | Log2(fold change) isoleucine ([1]; metabolite isoleucine): 0.0000 | Log2(fold change) lactate ([1]; metabolite lactate): -0.1258 | Log2(fold change) leucine ([1]; metabolite leucine): 0.0000 | Log2(fold change) lysine ([1]; metabolite lysine): -1.0057 | Log2(fold change) malate ([1]; metabolite malate): -0.5114 | Log2(fold change) maleic acid ([1]; metabolite maleic acid): 0.0000 | Log2(fold change) methionine ([1]; metabolite methionine): 0.1032 | Log2(fold change) myo-inositol ([1]; metabolite myo-inositol): -0.1088 | Log2(fold change) nicotinamide mononucleotide ([1]; metabolite nicotinamide mononucleotide): 0.0000 | Log2(fold change) nicotinate ([1]; metabolite nicotinate): -0.0014 | Log2(fold change) ornithine ([1]; metabolite ornithine): -0.5221 | Log2(fold change) orotate ([1]; metabolite orotate): -0.1200 | Log2(fold change) orotidine-5'-phosphate ([1]; metabolite orotidine-5'-phosphate): -0.1502 | Log2(fold change) oxaloacetate ([1]; metabolite oxaloacetate): 0.0000 | Log2(fold change) p-aminobenzoate ([1]; metabolite p-aminobenzoate): 0.0000 | Log2(fold change) p-hydroxybenzoate ([1]; metabolite p-hydroxybenzoate): 0.0000 | Log2(fold change) pantothenate ([1]; metabolite pantothenate): -0.3232 | Log2(fold change) phenylalanine ([1]; metabolite phenylalanine): -0.3048 | Log2(fold change) phenylpyruvate ([1]; metabolite phenylpyruvate): 0.0000 | Log2(fold change) phosphoenolpyruvate ([1]; metabolite phosphoenolpyruvate): 0.2889 | Log2(fold change) prephenate ([1]; metabolite prephenate): 0.0000 | Log2(fold change) proline ([1]; metabolite proline): -0.1760 | Log2(fold change) pyridoxine ([1]; metabolite pyridoxine): -0.0343 | Log2(fold change) pyruvate ([1]; metabolite pyruvate): -0.4249 | Log2(fold change) riboflavin ([1]; metabolite riboflavin): 0.0000 | Log2(fold change) ribose ([1]; metabolite ribose): 0.0000 | Log2(fold change) ribose-phosphate ([1]; metabolite ribose-phosphate): -0.1845 | Log2(fold change) ribulose-5-phosphate ([1]; metabolite ribulose-5-phosphate): 0.0000 | Log2(fold change) serine ([1]; metabolite serine): -0.0943 | Log2(fold change) sn-glycerol-3-phosphate ([1]; metabolite sn-glycerol-3-phosphate): 0.1547 | Log2(fold change) succinate/Methylmalonic acid ([1]; metabolite succinate/Methylmalonic acid): 0.2773 | Log2(fold change) succinyl-CoA/methylmalonyl-CoA ([1]; metabolite succinyl-CoA/methylmalonyl-CoA): 0.0000 | Log2(fold change) taurine ([1]; metabolite taurine): 0.4682 | Log2(fold change) thiamine ([1]; metabolite thiamine): -0.4163 | Log2(fold change) threonine/homoserine ([1]; metabolite threonine/homoserine): -0.3057 | Log2(fold change) thymidine ([1]; metabolite thymidine): 0.0000 | Log2(fold changes) thymine ([1]; metabolite thymine, log2 fold change): 0.0000 | Log2(fold changes) trehalose-6-Phosphate ([1]; metabolite trehalose-6-Phosphate, log2 fold change): 0.0000 | Log2(fold changes) tryptophan ([1]; metabolite tryptophan, log2 fold change): -0.2265 | Log2(fold changes) tyrosine ([1]; metabolite tyrosine, log2 fold change): -0.1308 | Log2(fold changes) uridine ([1]; metabolite uridine, log2 fold change): -0.0071 | IC50 [2]: 91.3 nM | Ratio lowest IC50 8hr/IC50 72hr ([3]; 3D7-A10): 1.8 | IC50 ([3]; 3D7, read-out: Early rings Mean IC50 (IC50^8h), 8-h exposure 0–8 hr, 3D7-A10, survival at 60 h): 369 nM | IC50 ([3]; 3D7, read-out: Early trophozoites Mean IC50 (IC50^8h), 8-h exposure 16–24 hr, 3D7-A10, survival at 60 h): 210 nM | IC50 ([3]; 3D7, read-out: Late rings Mean IC50 (IC50^8h), 8-h exposure 8–16 hr, 3D7-A10, survival at 60 h): 590 nM | IC50 ([3]; 3D7, read-out: Late trophozoites Mean IC50 (IC50^8h), 8-h exposure 24–32 hr, 3D7-A10, survival at 60 h): 165 nM | IC50 ([3]; 3D7, read-out: Schizonts Mean IC50 (IC50^8h), 8-h exposure 32–40 hr, 3D7-A10, survival at 60 h): 203 nM
